Source: ChEMBL document CHEMBL1201862, “PubChem BioAssay data set” (2004)
Activity calls are given as the source filed them.

Columns and labels:
[1] = Vero E6 cell cytotoxicity, dose response, cytotoxicity control for non-replicating M. tuberculosis project, secondary assay (AID 492998); assay type: functional, VeroE6; conditions: Vero C1008
[2] = HepG2 cell cytotoxicity, dose response, cytotoxicity control for non-replicating M. tuberculosis project (AID 489018); assay type: functional; conditions: Mycobacterium tuberculosis
cells = assay type: functional
[3] = cytotoxicity toward NIH3T3 fibroblasts, dose response, counter-screen, cell-based, ATP luminescence, mouse fibroblasts (AID 2010); assay type: functional;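 note: cells exposed to compound for about 90 hours before reading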
INS1 = assay: beta cell apoptosis inhibitors, cytokine rescue, dose response, luminescence, retest (AID 449756); assay type: functional, cell-based; conditions: Rattus norvegicus;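 note: cell death triggered by IL-1 beta plus TNF-alpha plus IFN-gamma mixture; protective hits raise ATP signal compared with cytokine alone wells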
[4] = THP-1 cell cytotoxicity, dose response, cytotoxicity control for non-replicating M. tuberculosis project (AID 489025); assay type: functional
[5] = inhibitors of intracellular T. cruzi replication, confirmation, NIH3T3 host cells, beta-gal luminescence (AID 2044); assay type: functional, cell-based;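 note: intracellular parasites grown in NIH/3T3 mouse fibroblasts as host cells; luminescent beta-galactosidase reporter signal from transgenic T. cruzi replicating inside host cells; inhibitors lower the luminescence signal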
[6] = target: T1, Type-1 angiotensin II receptor (Homo sapiens, UniProt P30556); assay: AT1 receptor agonists, dose response, selectivity assay for APJ receptor agonist project, cell-based, uHTS hits (AID 488865); assay type: functional;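 note: beta-arrestin recruitment to AT1 measured by enzyme fragment complementation luminescence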
T1 sequence (P30556 whole entry): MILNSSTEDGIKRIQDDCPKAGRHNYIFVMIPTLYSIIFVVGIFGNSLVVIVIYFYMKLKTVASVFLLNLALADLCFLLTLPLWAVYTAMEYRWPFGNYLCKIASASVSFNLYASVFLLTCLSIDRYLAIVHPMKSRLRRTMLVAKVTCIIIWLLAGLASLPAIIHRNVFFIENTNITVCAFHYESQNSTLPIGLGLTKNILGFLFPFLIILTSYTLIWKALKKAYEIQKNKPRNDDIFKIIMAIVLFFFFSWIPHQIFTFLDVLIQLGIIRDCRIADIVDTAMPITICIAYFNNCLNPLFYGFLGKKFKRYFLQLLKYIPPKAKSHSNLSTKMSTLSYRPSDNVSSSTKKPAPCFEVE

[7] = target: DNA dC->dU-editing enzyme APOBEC-3A (Homo sapiens, UniProt P31941); assay: Dose Response confirmation of small molecule APOBEC3A DNA Deaminase Inhibitors via a fluorescence-based single-stranded DNA deaminase assay. [Related pubchem assays (depositor defined):AID493011, AID493024]; assay type: functional
[8] = target: DNA dC->dU-editing enzyme APOBEC-3G (Homo sapiens, UniProt Q9HC16); assay type: functional;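 note: Dose-response counterscreen measuring inhibition of APOBEC3G DNA deaminase activity, run while confirming APOBEC3A inhibitors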
Aminopeptidase N = target: T2, Aminopeptidase N (Plasmodium falciparum FcB1/Columbia, UniProt O96935); assay: P. falciparum M1AAP inhibitors, biochemical, fluorogenic H-Leu-NHMec substrate, 1536-well (AID 1445); set-up: species or system Plasmodium falciparum 3D7, 3D7
T2 sequence (O96935 whole entry): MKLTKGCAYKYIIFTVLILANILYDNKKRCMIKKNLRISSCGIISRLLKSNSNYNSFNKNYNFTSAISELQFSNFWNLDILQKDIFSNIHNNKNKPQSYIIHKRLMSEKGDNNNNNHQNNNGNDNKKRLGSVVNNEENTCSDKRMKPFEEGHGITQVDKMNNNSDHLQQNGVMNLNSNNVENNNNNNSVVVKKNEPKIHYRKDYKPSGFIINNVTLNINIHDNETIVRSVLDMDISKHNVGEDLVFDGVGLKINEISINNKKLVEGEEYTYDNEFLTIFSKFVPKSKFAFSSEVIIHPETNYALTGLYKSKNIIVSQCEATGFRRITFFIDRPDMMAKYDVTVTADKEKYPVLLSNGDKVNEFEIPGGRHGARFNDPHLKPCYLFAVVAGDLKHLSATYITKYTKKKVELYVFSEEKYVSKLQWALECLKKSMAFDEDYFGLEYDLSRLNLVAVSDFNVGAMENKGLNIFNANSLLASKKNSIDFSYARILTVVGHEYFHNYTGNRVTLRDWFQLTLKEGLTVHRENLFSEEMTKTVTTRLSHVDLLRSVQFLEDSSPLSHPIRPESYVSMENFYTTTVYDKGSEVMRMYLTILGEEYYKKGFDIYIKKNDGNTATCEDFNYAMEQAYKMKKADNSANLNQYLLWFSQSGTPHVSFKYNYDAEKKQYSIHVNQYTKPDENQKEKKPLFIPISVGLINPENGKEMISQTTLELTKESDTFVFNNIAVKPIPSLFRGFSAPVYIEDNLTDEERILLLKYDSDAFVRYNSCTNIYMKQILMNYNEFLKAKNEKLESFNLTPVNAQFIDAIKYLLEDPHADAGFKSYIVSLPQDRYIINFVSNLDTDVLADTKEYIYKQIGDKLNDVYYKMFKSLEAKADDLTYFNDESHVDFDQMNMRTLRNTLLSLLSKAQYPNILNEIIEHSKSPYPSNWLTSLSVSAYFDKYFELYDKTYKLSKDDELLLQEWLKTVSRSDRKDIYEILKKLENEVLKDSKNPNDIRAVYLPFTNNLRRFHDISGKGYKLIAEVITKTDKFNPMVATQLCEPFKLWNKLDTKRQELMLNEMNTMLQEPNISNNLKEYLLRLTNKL

[9] = target: Induced myeloid leukemia cell differentiation protein Mcl-1 (Homo sapiens, UniProt Q07820); assay type: functional
Large T antigen = Large T antigen (Simian virus 40, UniProt P03070); assay type: functional, Betapolyomavirus macacae;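 note: Confirmatory-stage PubChem screen for compounds that inhibit SV40 T antigen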
[10] = target: T3, RNA-binding protein pos-1 (Caenorhabditis elegans, UniProt G5EF15); assay: inhibitors of POS-1/mex-3 RNA binding, dose response, biochemical, fluorescence polarization (AID 1964);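 note: purified POS-1 fused to maltose binding protein made in E. coli; potency of compounds blocking POS-1 binding to fluorescent RNA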
T3 sequence (G5EF15 whole entry): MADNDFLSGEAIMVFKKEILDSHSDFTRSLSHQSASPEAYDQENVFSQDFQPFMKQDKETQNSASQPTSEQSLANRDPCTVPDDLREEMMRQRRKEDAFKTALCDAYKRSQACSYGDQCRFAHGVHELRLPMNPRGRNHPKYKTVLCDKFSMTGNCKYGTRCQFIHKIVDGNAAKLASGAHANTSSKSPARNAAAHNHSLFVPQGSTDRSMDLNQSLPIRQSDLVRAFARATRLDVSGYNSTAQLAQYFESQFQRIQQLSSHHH

[11] = target: T4, Zinc finger protein mex-5 (Caenorhabditis elegans, UniProt Q9XUB2); assay: MEX-5/TCR-2 RNA interaction inhibitors, dose response, biochemical, C. elegans, fluorescence polarization (AID 1960)
T4 sequence (Q9XUB2 whole entry): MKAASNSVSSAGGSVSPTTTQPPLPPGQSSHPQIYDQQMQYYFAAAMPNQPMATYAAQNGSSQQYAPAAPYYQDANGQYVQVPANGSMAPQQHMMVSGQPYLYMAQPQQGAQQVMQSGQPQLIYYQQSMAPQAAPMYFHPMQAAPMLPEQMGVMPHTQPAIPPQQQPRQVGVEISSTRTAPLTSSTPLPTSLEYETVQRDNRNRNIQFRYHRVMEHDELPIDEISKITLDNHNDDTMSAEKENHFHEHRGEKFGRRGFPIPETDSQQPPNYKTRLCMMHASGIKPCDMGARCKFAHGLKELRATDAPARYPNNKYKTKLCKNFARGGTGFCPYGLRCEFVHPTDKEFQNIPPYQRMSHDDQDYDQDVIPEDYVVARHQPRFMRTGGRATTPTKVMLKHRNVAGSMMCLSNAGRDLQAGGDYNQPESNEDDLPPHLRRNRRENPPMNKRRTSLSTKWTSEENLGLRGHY

[12] = target: T5, Mannose-6-phosphate isomerase (Homo sapiens, UniProt P34949); assay: PMI enzyme inhibitors, confirmation, biochemical, fluorescence intensity (AID 1535)
T5 sequence (P34949 whole entry): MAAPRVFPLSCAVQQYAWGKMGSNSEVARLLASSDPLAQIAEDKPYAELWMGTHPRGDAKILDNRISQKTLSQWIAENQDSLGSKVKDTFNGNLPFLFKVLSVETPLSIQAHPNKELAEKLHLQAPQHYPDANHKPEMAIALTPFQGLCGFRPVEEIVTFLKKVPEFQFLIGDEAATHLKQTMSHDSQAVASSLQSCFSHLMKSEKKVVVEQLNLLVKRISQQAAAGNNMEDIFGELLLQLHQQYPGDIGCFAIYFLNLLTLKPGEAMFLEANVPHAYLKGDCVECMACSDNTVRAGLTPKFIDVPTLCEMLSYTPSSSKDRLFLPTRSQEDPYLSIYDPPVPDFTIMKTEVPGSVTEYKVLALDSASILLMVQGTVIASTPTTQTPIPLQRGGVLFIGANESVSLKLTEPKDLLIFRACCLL

Cytochrome P450 3A4 [13] = target: T6, Cytochrome P450 3A4 (Homo sapiens, UniProt P08684);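 note: CYP3A4 tested as one member of a cytochrome P450 panel screen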
Cytochrome P450 2D6 = Cytochrome P450 2D6 (Homo sapiens, UniProt P10635);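 note: CYP2D6 member of a cytochrome P450 panel assay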
Cytochrome P450 2C19 = Cytochrome P450 2C19 (Homo sapiens, UniProt P33261); assay: Cytochrome panel assay with activity outcomes. Panel member name: p450-cyp2c19 Compounds with AC50 equal or less than 10 uM are considered active; assay type: functional
[14] = target: T7, Carboxy-terminal domain RNA polymerase II polypeptide A small phosphatase 1 (Homo sapiens, UniProt Q9GZU7); assay: inhibitors of CTDSP1, concentration-response testing, biochemical assay, absorbance-based, actives from ultra-high-throughput screening (AID 540297); assay type: functional
T7 sequence (Q9GZU7 whole entry): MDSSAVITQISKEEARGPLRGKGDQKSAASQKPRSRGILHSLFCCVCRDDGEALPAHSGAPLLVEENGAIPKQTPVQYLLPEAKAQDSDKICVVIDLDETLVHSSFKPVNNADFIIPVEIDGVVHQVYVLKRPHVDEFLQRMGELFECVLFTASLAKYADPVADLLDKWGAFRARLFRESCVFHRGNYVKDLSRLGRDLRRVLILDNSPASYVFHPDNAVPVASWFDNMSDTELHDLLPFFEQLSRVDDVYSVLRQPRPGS

Estrogen receptor beta = Estrogen receptor beta (Homo sapiens, UniProt Q92731); assay: ERβ–SRC-3 coactivator interaction inhibitors, confirmation, orthogonal assay, biochemical, ELISA, streptavidin-HRP readout (AID 1060)
Cytochrome P450 3A4 [15] = target: T6, Cytochrome P450 3A4; remark: listed apart in the source
Estrogen receptor = target: T8, Estrogen receptor (Homo sapiens, UniProt P03372);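 note: potency for inhibiting coactivator peptide recruitment to the receptor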
T8 sequence (P03372 whole entry): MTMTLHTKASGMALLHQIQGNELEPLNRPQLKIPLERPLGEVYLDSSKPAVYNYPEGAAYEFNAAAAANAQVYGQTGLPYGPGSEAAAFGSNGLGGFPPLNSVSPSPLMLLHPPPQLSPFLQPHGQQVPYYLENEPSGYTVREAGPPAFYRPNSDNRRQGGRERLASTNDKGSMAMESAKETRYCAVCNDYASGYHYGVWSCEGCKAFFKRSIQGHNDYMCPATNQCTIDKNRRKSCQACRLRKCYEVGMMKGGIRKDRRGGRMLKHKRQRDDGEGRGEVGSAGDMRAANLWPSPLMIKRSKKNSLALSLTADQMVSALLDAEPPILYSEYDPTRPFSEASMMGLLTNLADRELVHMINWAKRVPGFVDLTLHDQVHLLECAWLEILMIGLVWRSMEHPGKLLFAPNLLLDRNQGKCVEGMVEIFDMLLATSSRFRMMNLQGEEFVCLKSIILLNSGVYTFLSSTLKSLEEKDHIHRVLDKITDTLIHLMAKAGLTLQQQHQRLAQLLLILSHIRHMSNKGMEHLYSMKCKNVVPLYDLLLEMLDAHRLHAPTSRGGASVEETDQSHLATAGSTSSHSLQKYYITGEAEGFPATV

Cytochrome P450 1A2 = target: T9, Cytochrome P450 1A2 (Homo sapiens, UniProt P05177);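 note: PubChem cytochrome P450 panel assay, CYP1A2 panel member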
T9 sequence (P05177 whole entry): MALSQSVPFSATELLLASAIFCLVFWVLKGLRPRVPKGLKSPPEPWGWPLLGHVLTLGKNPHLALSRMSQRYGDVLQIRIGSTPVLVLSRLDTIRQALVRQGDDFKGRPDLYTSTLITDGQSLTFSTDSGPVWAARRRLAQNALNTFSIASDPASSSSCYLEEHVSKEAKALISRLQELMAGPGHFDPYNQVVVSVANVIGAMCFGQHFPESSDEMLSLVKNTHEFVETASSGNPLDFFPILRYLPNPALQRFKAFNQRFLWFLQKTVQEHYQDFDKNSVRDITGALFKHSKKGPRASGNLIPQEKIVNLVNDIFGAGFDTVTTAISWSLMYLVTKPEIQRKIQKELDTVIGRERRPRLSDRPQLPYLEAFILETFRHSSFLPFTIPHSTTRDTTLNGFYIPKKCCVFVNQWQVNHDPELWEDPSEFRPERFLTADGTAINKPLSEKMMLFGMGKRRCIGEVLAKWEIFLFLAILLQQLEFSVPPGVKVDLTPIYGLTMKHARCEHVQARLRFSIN

Chain of Induced myeloid leukemia cell differentiation protein Mcl-1 (Q07820 whole entry): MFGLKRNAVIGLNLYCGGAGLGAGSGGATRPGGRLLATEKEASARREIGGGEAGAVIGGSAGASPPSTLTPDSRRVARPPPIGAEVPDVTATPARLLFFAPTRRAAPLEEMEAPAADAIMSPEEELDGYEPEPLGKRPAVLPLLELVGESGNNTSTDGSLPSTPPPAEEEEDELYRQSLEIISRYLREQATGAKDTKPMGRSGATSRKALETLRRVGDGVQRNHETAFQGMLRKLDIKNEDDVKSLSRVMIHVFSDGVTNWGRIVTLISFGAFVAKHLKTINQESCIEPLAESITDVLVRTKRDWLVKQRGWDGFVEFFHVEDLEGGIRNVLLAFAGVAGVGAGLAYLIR
Chain of DNA dC->dU-editing enzyme APOBEC-3G (Q9HC16 whole entry): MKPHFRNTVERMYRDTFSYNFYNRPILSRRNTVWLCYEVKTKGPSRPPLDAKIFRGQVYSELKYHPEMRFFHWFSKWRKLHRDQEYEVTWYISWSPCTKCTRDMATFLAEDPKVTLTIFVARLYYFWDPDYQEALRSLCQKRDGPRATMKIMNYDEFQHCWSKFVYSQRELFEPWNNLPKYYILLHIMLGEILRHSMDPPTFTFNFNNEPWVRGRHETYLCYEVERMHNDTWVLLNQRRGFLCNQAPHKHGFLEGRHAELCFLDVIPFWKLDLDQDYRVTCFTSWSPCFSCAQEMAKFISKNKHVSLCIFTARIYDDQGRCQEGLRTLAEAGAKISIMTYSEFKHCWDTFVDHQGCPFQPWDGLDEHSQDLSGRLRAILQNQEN
T6 sequence (P08684 whole entry): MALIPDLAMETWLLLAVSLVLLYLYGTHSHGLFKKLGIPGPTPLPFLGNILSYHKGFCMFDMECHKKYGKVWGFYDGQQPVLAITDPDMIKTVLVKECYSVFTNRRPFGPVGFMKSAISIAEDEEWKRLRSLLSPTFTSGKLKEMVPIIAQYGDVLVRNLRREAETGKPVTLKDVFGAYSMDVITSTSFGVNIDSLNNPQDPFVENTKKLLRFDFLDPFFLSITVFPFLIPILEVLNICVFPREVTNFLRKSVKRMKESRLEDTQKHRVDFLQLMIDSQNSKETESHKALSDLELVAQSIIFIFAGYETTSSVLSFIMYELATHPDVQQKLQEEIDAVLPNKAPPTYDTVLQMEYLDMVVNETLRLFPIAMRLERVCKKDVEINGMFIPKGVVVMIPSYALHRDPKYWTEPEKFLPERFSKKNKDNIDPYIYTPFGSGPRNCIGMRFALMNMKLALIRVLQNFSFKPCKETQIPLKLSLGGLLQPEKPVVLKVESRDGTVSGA
Chain of DNA dC->dU-editing enzyme APOBEC-3A (P31941 whole entry): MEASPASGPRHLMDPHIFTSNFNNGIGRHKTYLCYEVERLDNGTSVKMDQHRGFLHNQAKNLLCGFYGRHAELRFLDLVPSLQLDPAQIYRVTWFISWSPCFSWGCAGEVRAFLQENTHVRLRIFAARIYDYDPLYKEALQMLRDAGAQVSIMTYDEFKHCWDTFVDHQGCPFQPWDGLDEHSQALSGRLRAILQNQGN
Chain of Cytochrome P450 2D6 (P10635 whole entry): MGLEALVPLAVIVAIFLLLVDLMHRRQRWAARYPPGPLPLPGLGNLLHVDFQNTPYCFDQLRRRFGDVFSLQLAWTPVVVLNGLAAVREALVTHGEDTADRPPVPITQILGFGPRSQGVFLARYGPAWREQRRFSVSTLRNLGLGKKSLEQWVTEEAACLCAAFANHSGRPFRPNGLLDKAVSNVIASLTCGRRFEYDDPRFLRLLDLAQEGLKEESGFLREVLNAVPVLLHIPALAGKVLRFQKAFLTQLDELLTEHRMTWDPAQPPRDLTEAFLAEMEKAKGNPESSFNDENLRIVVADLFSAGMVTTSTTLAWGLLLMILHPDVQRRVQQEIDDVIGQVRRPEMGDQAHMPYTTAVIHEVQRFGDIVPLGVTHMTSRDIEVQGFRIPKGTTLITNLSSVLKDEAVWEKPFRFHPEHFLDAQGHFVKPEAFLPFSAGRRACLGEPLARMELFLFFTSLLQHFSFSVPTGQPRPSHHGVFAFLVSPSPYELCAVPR
Chain of Large T antigen (P03070 whole entry, the tested form may be a part): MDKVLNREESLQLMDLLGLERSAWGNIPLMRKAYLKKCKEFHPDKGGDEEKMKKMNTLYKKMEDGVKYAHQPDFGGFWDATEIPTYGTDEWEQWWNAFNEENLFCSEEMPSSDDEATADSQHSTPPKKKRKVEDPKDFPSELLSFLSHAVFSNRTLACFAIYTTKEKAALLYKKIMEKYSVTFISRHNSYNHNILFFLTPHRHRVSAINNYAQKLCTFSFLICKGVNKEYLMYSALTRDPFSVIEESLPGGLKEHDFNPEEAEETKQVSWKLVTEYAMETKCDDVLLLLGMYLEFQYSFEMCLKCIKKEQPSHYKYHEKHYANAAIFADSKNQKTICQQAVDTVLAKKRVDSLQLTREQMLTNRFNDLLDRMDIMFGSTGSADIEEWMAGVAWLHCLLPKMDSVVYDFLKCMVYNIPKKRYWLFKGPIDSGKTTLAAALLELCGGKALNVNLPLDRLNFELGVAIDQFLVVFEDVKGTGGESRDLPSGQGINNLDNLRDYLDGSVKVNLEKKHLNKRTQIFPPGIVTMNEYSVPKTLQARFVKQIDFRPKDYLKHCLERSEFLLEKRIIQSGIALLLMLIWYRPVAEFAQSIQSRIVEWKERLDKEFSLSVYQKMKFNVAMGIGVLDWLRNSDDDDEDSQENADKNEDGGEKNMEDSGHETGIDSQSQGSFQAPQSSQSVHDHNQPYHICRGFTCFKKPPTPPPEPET
Chain of Estrogen receptor beta (Q92731 whole entry): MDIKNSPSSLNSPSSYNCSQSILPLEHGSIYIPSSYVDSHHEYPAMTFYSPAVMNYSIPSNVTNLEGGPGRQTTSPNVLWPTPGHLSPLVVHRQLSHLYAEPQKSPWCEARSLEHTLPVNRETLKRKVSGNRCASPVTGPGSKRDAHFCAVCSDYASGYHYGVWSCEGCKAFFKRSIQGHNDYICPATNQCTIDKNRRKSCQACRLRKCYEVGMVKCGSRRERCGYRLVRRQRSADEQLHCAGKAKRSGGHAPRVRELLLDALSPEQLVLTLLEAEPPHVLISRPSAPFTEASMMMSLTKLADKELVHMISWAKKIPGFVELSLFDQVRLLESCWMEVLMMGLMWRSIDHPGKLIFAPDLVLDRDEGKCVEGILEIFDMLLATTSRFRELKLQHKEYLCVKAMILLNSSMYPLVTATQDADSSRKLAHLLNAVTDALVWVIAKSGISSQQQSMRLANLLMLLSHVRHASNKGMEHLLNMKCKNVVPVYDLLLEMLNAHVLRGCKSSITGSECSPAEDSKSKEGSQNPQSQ
Chain of Cytochrome P450 2C19 (P33261 whole entry, the tested form may be a part): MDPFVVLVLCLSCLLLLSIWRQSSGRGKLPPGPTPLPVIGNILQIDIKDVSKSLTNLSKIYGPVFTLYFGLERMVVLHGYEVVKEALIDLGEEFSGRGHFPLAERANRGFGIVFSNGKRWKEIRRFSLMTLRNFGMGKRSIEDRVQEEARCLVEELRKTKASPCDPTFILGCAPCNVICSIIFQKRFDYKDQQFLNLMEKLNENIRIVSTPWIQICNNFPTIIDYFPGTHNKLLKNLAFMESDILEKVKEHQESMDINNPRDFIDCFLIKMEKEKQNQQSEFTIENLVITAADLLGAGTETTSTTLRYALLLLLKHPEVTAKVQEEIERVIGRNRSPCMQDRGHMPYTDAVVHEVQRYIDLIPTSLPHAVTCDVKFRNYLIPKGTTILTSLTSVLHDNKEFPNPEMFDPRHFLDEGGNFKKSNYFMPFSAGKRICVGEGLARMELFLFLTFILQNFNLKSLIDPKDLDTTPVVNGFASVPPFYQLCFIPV

## O=C(Cc1cccs1)N/N=C\c1ccc([N+](=O)[O-])s1
[1]
  CC50: 11.5 µM (active)
[2]
  CC50: 17.7 µM (active)
cells
  IC50: 9.65 µM (active)
[3]
  EC50: 17.5 µM (active)
INS1
  AC50: 6.28 µM (active)
[4]
  CC50: 15.3 µM (active)
[5]
  EC50: 360 nM (active)

## COc1ccccc1-n1c(O)cc(=O)nc1SC
[6]
  EC50: > 100 µM (inactive)

## C=CCNC(=O)c1ccccc1NC(=O)C1CCN(S(=O)(=O)c2ccc(SC)cc2)CC1
[7]
  IC50: 5.28 µM (active)
[8]
  IC50: 6.15 µM (active)

## Nc1cc(C(=O)O)c(N)c2c1C(=O)c1ccccc1C2=O
Aminopeptidase N
  IC50: 58.9 µM (active)
[9]
  IC50: 3.71 µM (active)
Large T antigen
  IC50: 21.9 µM (active)
[10]
  EC50: 4.27 µM (active)
[11]
  EC50: 2.39 µM (active)

## CCOC(=O)c1nnc(/N=c2\ssnc2Cl)o1
[12]
  IC50: 32.5 µM (active)

## C=C(C)CNCC(=C)C.Oc1c(Cl)c(Cl)c(Cl)c(Cl)c1Cl
Cytochrome P450 3A4 [13]
  AC50: inactive
Cytochrome P450 2D6
  AC50: inactive
Cytochrome P450 2C19
  AC50: inconclusive

## O=C(Cc1ccc(S(=O)(=O)N2CCOCC2)s1)Nc1nc2c(s1)CCCC2
[14]
  IC50: 3.2 µM (active)
Estrogen receptor beta
  IC50: 5.27 µM (not active)
Cytochrome P450 3A4 [15]
  AC50: 14.1 µM (inconclusive)
[9]
  IC50: 4.44 µM (active)
[7]
  IC50: 10.5 µM (active)
Estrogen receptor
  IC50: 4.69 µM (active)
[8]
  IC50: 33.7 µM (active)
Cytochrome P450 1A2
  AC50: 28.2 µM (inconclusive)

## CC(=O)O.CN1CCN(CN2C(=O)C3C4C=CC(C3C2=O)C2C3C(=O)N(CN5CCN(C)CC5)C(=O)C3C42)CC1 (stereo not drawn)
Cytochrome P450 2D6
  AC50: inconclusive
